# Where a name gives a salt, the structure may show the parent alone. Read-outs that look alike come from different tables or passages of the source.
# What was measured:
# Experiment in all cases: qHTS cell viability (CellTiter-Glo, 72 h; primary and follow-up small molecule screen)
# Type in all cases: cell-based, human
# [1] = test system: MKL-2 cells (VP-MCC)
# [2] = test system: MCC26 cells (VN-MCC)
# [3] = test system: WAGA cells (VP-MCC)
# [4] = test system: MCC13 cells (VN-MCC)
# [5] = test system: UISO cells (VN-MCC)
# [6] = test system: MKL-1 cells (VP-MCC)
# [7] = follow-up screen, MKL-2, replicate 1
# [8] = follow-up screen, MKL-2, replicate 2
# [9] = follow-up screen, MKL-2, replicate 3
# [10] = follow-up screen, MCC26, replicate 1
# [11] = follow-up screen, MCC26, replicate 2
# [12] = follow-up screen, MCC26, replicate 3
# [13] = follow-up screen, WAGA, replicate 1
# [14] = follow-up screen, WAGA, replicate 2
# [15] = follow-up screen, WAGA, replicate 3
# [16] = follow-up screen, MCC13, replicate 1
# [17] = follow-up screen, MCC13, replicate 2
# [18] = follow-up screen, MCC13, replicate 3
# [19] = follow-up screen, UISO, replicate 1
# [20] = follow-up screen, UISO, replicate 2
# [21] = follow-up screen, UISO, replicate 3
# [22] = follow-up screen, MKL-1, replicate 1
# [23] = follow-up screen, MKL-1, replicate 2
# [24] = follow-up screen, MKL-1, replicate 3
SMILES,"Area under the dose-response curve (AUC) MKL-2 Replicate 1 [1, 7]","Area under the dose-response curve (AUC) MKL-2 Replicate 2 [1, 8]","Area under the dose-response curve (AUC) MKL-2 Replicate 3 [1, 9]","Area under the dose-response curve (AUC) MCC26 Replicate 1 [2, 10]","Area under the dose-response curve (AUC) MCC26 Replicate 2 [2, 11]","Area under the dose-response curve (AUC) MCC26 Replicate 3 [2, 12]","Area under the dose-response curve (AUC) WAGA Replicate 1 [3, 13]","Area under the dose-response curve (AUC) WAGA Replicate 2 [3, 14]","Area under the dose-response curve (AUC) WAGA Replicate 3 [3, 15]","Area under the dose-response curve (AUC) MCC13 Replicate 1 [4, 16]","Area under the dose-response curve (AUC) MCC13 Replicate 2 [4, 17]","Area under the dose-response curve (AUC) MCC13 Replicate 3 [4, 18]","Area under the dose-response curve (AUC) UISO Replicate 1 [5, 19]","Area under the dose-response curve (AUC) UISO Replicate 2 [5, 20]","Area under the dose-response curve (AUC) UISO Replicate 3 [5, 21]","Area under the dose-response curve (AUC) MKL-1 Replicate 1 [6, 22]","Area under the dose-response curve (AUC) MKL-1 Replicate 2 [6, 23]","Area under the dose-response curve (AUC) MKL-1 Replicate 3 [6, 24]",other results
CCN(CCO)CCCC(C)Nc1ccnc2cc(Cl)ccc12 (stereo not drawn) [Hydroxychloroquine sulfate],454.2,416.6,490.5,423.8,423.8,468.3,540.2,519.3,458.7,495.6,487.6,467.0,504.6,448.6,420.1,541.8,486.3,499.9,
CC(/C=C/C(=O)NO)=C\[C@@H](C)C(=O)c1ccc(N(C)C)cc1 [TSA],,,,,,,,,,,,,,,,,,,Area under the dose-response curve (AUC) MKL-2 Replicate 1 [1]: 276.9; Area under the dose-response curve (AUC) MKL-2 Replicate 2 [1]: 277.0; Area under the dose-response curve (AUC) MKL-2 Replicate 3 [1]: 326.7; Area under the dose-response curve (AUC) MCC26 Replicate 1 [2]: 375.6; Area under the dose-response curve (AUC) MCC26 Replicate 2 [2]: 383.1; Area under the dose-response curve (AUC) MCC26 Replicate 3 [2]: 360.2; Area under the dose-response curve (AUC) WAGA Replicate 1 [3]: 341.0; Area under the dose-response curve (AUC) WAGA Replicate 2 [3]: 323.1; Area under the dose-response curve (AUC) WAGA Replicate 3 [3]: 341.7; Area under the dose-response curve (AUC) MCC13 Replicate 1 [4]: 419.6; Area under the dose-response curve (AUC) MCC13 Replicate 2 [4]: 438.9; Area under the dose-response curve (AUC) MCC13 Replicate 3 [4]: 399.7; Area under the dose-response curve (AUC) UISO Replicate 1 [5]: 357.7; Area under the dose-response curve (AUC) UISO Replicate 2 [5]: 378.3; Area under the dose-response curve (AUC) UISO Replicate 3 [5]: 338.8; Area under the dose-response curve (AUC) MKL-1 Replicate 1 [6]: 401.2; Area under the dose-response curve (AUC) MKL-1 Replicate 2 [6]: 324.1; Area under the dose-response curve (AUC) MKL-1 Replicate 3 [6]: 329.2
CN(C(Cc1ccc(O[S+](=O)([O-])c2cccc3cnccc23)cc1)C(=O)N1CCN(c2ccccc2)CC1)[S+](=O)([O-])c1cccc2cnccc12 (stereo not drawn) [KN-62],465.4,466.3,472.5,447.5,438.4,461.3,521.5,471.3,468.9,505.2,474.1,504.9,473.7,471.7,409.6,492.0,481.7,479.5,
